Experimental data published in patent publication US8557813B2, “2-benzylpyridazinone derivatives as met kinase inhibitors” (Merck Patent GmbH, priority 2007, dated 2013).
Structures can show the parent of a compound that is named as a salt.

What was measured:
Met kinase [1] = biological target: T1, Met kinase (Homo sapiens, UniProt P08581); assay: Met kinase inhibition, enzyme assay (flashplate method); assay type: biochemical; set-up: 6His (N); purchased Upstate 14-526; host or cells: Sf21 insect cells (S. frugiperda), baculovirus
Source text: According to the manufacturer's data (Met, active, upstate, catalogue No. 14-526), Met kinase is expressed for the purposes of protein production in insect cells (Sf21; S. frugiperda) and subsequent affinity-chromatographic purification as “N-terminal 6His-tagged” recombinant human protein in a baculovirus expression vector.
The test plates used are 96-well Flashplate® microtitre plates from Perkin Elmer (Cat. No. SMP200). The components of the kinase reaction described below are pipetted into the assay plate. The Met kinase and the substrate poly Ala-Glu-Lys-Tyr, (pAGLT, 6:2:5:1), are incubated for 3 hrs at room temperature with radioactively labelled ^33P-ATP in the presence and absence of test substances in a total volume of 100 μl. The reaction is terminated using 150 μl of a 60 mM EDTA solution. After incubation for a further 30 min at room temperature, the supernatants are filtered off with suction, and the wells are washed three times with 200 μl of 0.9% NaCl solution each time. The measurement of the bound radioactivity is carried out by means of a scintillation measuring instrument (Topcount NXT, Perkin-Elmer).
The full value used is the inhibitor-free kinase reaction. This should be approximately in the range 6000-9000 cpm. The pharmacological zero value used is staurosporin in a final concentration of 0.1 mM. The inhibitory values (IC50) are determined using the RS1_MTS program.
Kinase Reaction Conditions Per Well:
10 μl of substance to be tested in assay buffer with 10% of DMSO
10 μl of ATP (final concentration 1 μM cold, 0.35 μCi of ^33P-ATP)
50 μl of Met kinase/substrate mixture in assay buffer; • (10 ng of enzyme/well, 50 ng of pAGLT/well) • Solutions Used: • Assay buffer: • 50 mM HEPES • 3 mM magnesium chloride • 3 μM sodium orthovanadate • 3 mM manganese(II) chloride • 1 mM dithiothreitol (DTT) • pH=7.5 (to be set using sodium hydroxide) • Stop Solution: • 60 mM Titriplex III (EDTA) • ^33P-ATP: Perkin-Elmer; • Met kinase: Upstate, Cat. No. 14-526, Stock 1 μg/10 μl; spec. activity 954 U/mg; • Poly-Ala-Glu-Lys-Tyr, 6:2:5:1: Sigma Cat. No. P1152

Met kinase [2] = biological target: T1, Met kinase; assay: Met kinase inhibition, cell assay; assay type: cell-based
TPR-Met/NIH3T3 cells = assay: In-vivo test, TPR-Met/NIH3T3 tumor model in mice; conditions: female Balb/C mice, s.c. TPR-Met/NIH3T3 tumors, 200 mg/kg daily by gastric tube, 9 days, tumor volume
Description: Experimental Procedure: Female Balb/C mice (breeder: Charles River Wiga) were 5 weeks old on arrival. They were acclimatized to our keeping conditions for 7 days. Each mouse was subsequently injected subcutaneously in the pelvic area with 4 million TPR-Met/NIH3T3 cells in 100 μl of PBS (without Ca++ and Mg++). […] 100 μl of vehicle (0.25% methylcellulose/100 mM acetate buffer, pH 5.5) were administered daily to the control group, and 200 mg/kg of “A56” or “A91” dissolved in the vehicle (volume likewise 100 μl/animal) were administered daily to the treatment groups, in each case by gastric tube.
Measurement of the tumor volume: The length (L) and breadth (B) were measured using a Vernier calliper, and the tumor volume was calculated from the formula L×B×B/2.
Keeping conditions: 4 or 5 animals per cage, feeding with commercial mouse food (Sniff).

T1 sequence (P08581 25-1390): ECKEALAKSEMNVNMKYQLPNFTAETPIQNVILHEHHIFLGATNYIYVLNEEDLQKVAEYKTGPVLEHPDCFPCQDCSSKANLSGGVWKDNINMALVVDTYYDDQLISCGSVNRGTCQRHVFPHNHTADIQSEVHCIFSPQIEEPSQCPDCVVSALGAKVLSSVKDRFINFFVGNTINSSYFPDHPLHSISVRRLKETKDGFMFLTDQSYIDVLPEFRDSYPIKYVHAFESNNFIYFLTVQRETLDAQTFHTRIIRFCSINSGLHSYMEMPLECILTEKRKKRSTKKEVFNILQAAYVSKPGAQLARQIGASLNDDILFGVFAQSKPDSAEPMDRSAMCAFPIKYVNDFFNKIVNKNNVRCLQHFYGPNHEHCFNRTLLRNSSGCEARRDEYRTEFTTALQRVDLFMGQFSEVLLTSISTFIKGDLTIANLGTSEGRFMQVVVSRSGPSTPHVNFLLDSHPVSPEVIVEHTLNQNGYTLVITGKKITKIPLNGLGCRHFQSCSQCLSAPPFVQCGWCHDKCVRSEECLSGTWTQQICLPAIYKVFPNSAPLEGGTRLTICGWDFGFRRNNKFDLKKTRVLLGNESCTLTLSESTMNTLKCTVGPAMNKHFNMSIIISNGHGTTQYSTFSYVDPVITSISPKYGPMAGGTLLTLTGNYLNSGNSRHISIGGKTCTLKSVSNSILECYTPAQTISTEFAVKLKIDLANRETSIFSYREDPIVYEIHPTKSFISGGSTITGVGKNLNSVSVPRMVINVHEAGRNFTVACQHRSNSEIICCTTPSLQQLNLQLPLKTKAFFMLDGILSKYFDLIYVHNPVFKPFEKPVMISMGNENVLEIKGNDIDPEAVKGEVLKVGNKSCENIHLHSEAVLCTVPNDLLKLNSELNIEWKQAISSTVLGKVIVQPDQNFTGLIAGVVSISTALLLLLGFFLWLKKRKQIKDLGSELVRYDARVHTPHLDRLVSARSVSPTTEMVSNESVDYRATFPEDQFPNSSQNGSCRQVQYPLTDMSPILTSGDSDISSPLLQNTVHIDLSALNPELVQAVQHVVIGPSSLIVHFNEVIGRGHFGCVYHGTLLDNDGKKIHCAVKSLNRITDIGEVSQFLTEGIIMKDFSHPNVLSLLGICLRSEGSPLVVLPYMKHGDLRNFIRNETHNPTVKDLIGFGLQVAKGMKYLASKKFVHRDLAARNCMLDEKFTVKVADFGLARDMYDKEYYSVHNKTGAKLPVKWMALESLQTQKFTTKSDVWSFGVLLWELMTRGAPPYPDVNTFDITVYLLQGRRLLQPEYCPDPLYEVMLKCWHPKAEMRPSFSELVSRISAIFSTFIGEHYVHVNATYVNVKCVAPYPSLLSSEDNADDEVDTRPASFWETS

Structure (SMILES) | IC50 (Met kinase [1]) [µM] | IC50 (Met kinase [2]) [µM] | antitumoral action (TPR-Met/NIH3T3 cells)
O=c1ccc(C2CC2)nn1Cc1cccc(-c2ncc(Br)cn2)c1 [Compound A1, 2-[3-(5-bromopyrimidin-2-yl)benzyl]-6-cyclopropyl-2H-pyridazin-3-one] | 0.001 to 0.1 | 0.1 to 10 | 
O=c1ccc(C2CC2)nn1Cc1cccc(-c2ncc(-c3cnn(CCN4CCCC4)c3)cn2)c1 [Compound A2, 6-cyclopropyl-2-(3-{5-[1-(2-pyrrolidin-1-ylethyl)-1H-pyrazol-4-yl]pyrimidin-2-yl}benzyl)-2H-pyridazin-3-one] | 0.001 to 0.1 | 0.001 to 0.1 | 
O=c1ccc(C2CC2)nn1Cc1cccc(-c2ncc(-c3cnn(CCN4CCOCC4)c3)cn2)c1 [Compound A3, 6-cyclopropyl-2-(3-{5-[1-(2-morpholin-4-ylethyl)-1H-pyrazol-4-yl]-pyrimidin-2-yl}benzyl)-2H-pyridazin-3-one] | 0.001 to 0.1 | 0.001 to 0.1 | 
Cc1cnc(-c2cccc(Cn3nc(C4CC4)ccc3=O)c2)nc1 [Compound A4, 6-cyclopropyl-2-[3-(5-methylpyrimidin-2-yl)benzyl]-2H-pyridazin-3-one] | 0.001 to 0.1 | 0.1 to 10 | 
O=c1ccc(C2CC2)nn1Cc1cccc(-c2ncc(-c3cnn(C4CCNCC4)c3)cn2)c1 [Compound A5, 6-cyclopropyl-2-{3-[5-(1-piperidin-4-yl-1H-pyrazol-4-yl)-pyrimidin-2-yl]benzyl}-2H-pyridazin-3-one] | 0.001 to 0.1 | 0.001 to 0.1 | 
Cc1ccc(=O)n(Cc2cccc(-c3ncc(-c4cnn(C5CCNCC5)c4)cn3)c2)n1 [Compound A6, 6-methyl-2-{3-[5-(1-piperidin-4-yl-1H-pyrazol-4-yl)pyrimidin-2-yl]benzl}-2H-pyridazin-3-one] | 0.001 to 0.1 | 0.1 to 10 | 
Cc1nc(-c2cccc(Cn3nc(C4CC4)ccc3=O)c2)no1 [Compound A7, 6-cyclopropyl-2-[3-(5-methyl-1,2,4-oxadiazol-3-yl)benzyl]-2H-pyridazin-3-one] | 0.1 to 10 | > 10 | 
CN(C)CCCOc1cnc(-c2cccc(Cn3nc(C4CC4)ccc3=O)c2)nc1 [Compound A8, 6-cyclopropyl-2-{3-[5-(3-dimethylaminopropoxy)pyrimidin-2-yl]benzyl}-2H-pyridazin-3-one] | 0.001 to 0.1 | 0.001 to 0.1 | 
CN1CCC(Oc2cnc(-c3cccc(Cn4nc(C5CC5)ccc4=O)c3)nc2)CC1 [Compound A9, 6-cyclopropyl-2-{3-[5-(1-methylpiperidin-4-yloxy)pyrimidin-2-yl]benzyl}-2H-pyridazin-3-one] | 0.001 to 0.1 | 0.001 to 0.1 | 
CC(C)c1ccc(=O)n(Cc2cccc(-c3ncc(OCCCN(C)C)cn3)c2)n1 [Compound A10, 2-{3-[5-(3-dimethylaminopropoxy)pyrimidin-2-yl]benzyl}-6-isopropyl-2H-pyridazin-3-one formate] | 0.001 to 0.1 | 0.1 to 10 | 
O=c1ccc(C2CC2)nn1Cc1cccc(-c2ncc(OC3CCNCC3)cn2)c1 [Compound A11, 6-cyclopropyl-2-{3-[5-(piperidin-4-yloxy)pyrimidin-2-yl]benzyl}-2H-pyridazin-3-one] | 0.001 to 0.1 | 0.1 to 10 | 
CN1CCN(c2cnc(-c3cccc(Cn4nc(C5CC5)ccc4=O)c3)nc2)CC1 [Compound A12, 6-cyclopropyl-2-{3-[5-(4-methylpiperazin-1-yl)pyrimidin-2-yl]benzyl}-2H-pyridazin-3-one] | 0.001 to 0.1 | 0.001 to 0.1 | 
CC(C)c1ccc(=O)n(Cc2cccc(-c3ncc(-c4cnn(CCN5CCOCC5)c4)cn3)c2)n1 [Compound A13, 6-isopropyl-2-(3-{5-[1-(2-morpholin-4-ylethyl)-1H-pyrazol-4-yl]pyrimidin-2-yl}benzyl)-2H-pyridazin-3-one] | 0.001 to 0.1 | 0.1 to 10 | 
O=c1cccnn1Cc1cccc(-c2ncc(-c3cnn(CCN4CCOCC4)c3)cn2)c1 [Compound A14, 2-(3-{5-[1-(2-morpholin-4-ylethyl)-1H-pyrazol-4-yl]pyrimidin-2-yl}benzyl)-2H-pyridazin-3-one] | 0.001 to 0.1 | 0.1 to 10 | 
O=c1ccc(C2CCC2)nn1Cc1cccc(-c2ncc(-c3cnn(CCN4CCCC4)c3)cn2)c1 [Compound A15, 6-cyclobutyl-2-(3-{5-[1-(2-pyrrolidin-1-ylethyl)-1H-pyrazol-4-yl]pyrimidin-2-yl}benzyl)-2H-pyridazin-3-one] | 0.001 to 0.1 | 0.001 to 0.1 | 
Nc1cnc(-c2cccc(Cn3nc(C4CC4)ccc3=O)c2)nc1 [Compound A18, 2-[3-(5-aminopyrimidin-2-yl)benzyl]-6-cyclopropyl-2H-pyridazin-3-one] | 0.1 to 10 | 0.1 to 10 | significant antitumoral action
